Earlier results on one substance are cited in patent US20140079751A1, “METHOD OF USING COMPOSITE OF SILVER NANOPARTICLES AND NANOSILICATE PLATELETS TO INHIBIT GROWTH OF SILVER-RESISTANT BACTERIA” (priority 2010, published 2014).

The test system of this data set is silver-resistant Escherichia coli (J53pMG101). The conditions noted are these: background statement, Escherichia coli strain J53 pMG101.

In the case of silver ions, the “silver ion concentration the strain can survive” value is “more than 1 mM”.
